Like-named read-outs stand apart in the source and are kept apart here.
Experiments:
B1-AR = target: T1, B1-AR (Homo sapiens, UniProt P08588); test: cAMP Gs dynamic HTRF assay, cells expressing beta-adrenergic receptor (CHO-K1), B1-AR; type: cell-based; conditions: for EC50: cAMP HTRF, read-out: pEC50 [B1-AR] (converted); for Emax: relative to full agonist isoproterenol, read-out: Emax (% iso) (%) [B1-AR]
T1 construct: expressed in transfected cells; host or cells: CHO-K1

B2-AR = target: T2, B2-AR (Homo sapiens, UniProt P07550); test: cAMP Gs dynamic HTRF assay, cells expressing beta-adrenergic receptor (CHO-K1), B2-AR; type: cell-based; conditions: for Emax: relative to full agonist isoproterenol, read-out: Emax (% iso) (%) [B2-AR]; for EC50: cAMP HTRF, read-out: pEC50 [B2-AR] (converted)
T2 construct: expressed in transfected cells; host or cells: CHO-K1
T2 sequence (P07550 whole entry, species assumed): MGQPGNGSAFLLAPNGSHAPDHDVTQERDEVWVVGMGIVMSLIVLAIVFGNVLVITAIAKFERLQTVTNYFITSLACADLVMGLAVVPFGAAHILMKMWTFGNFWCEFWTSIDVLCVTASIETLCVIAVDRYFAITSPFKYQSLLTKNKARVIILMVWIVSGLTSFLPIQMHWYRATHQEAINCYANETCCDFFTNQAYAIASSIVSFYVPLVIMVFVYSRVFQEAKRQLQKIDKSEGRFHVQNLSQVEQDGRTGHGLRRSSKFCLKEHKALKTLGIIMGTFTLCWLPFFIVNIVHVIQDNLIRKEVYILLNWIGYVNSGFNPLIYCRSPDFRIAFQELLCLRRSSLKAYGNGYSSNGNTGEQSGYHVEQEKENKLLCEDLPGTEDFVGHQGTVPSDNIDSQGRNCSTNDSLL

T1 sequence (P08588 whole entry, species assumed): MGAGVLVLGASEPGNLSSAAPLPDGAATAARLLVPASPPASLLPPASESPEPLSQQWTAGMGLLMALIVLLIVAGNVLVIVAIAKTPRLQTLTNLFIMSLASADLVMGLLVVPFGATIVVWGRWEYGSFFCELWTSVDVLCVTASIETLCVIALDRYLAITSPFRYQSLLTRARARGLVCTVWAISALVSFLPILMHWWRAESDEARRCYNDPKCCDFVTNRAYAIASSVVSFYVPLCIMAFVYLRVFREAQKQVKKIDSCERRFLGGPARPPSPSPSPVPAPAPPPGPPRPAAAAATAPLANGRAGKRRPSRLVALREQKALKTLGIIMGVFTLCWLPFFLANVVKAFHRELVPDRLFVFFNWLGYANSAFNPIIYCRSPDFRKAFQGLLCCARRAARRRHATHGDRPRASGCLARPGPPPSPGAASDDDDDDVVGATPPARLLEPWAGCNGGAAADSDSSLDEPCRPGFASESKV

Row | Structure (SMILES) | EC50 (B1-AR) [µM] | Emax (B1-AR) [%] | Emax (B2-AR; CHO-K1, CHO-K1 cells) [%] | EC50 (B2-AR; CHO-K1 cells) [µM] | Emax (B2-AR; CHO-K1 cells) [%]
1 | CC(C)(C)NC[C@@H](O)c1ccc(N)nn1 [I-141] | > 1 | > 90 | > 90 | 0.1 to 1 | 
2 | CC(C)(C)NC[C@H](O)c1ccc(N)nn1 [I-142] | 0.01 to 0.1 | > 90 | > 90 | 0.01 to 0.1 | 
3 | CC(C)(C)NC[C@@H](O)c1cccc(Br)n1 [I-143] | 0.1 to 1 | 70 to 90 | 50 to 70 | > 1 | 
4 | Cc1nc(N)ncc1[C@@H](O)CNC(C)(C)C [I-144] | > 1 | 70 to 90 | > 90 | 0.01 to 0.1 | 
5 | Cc1nc(N)c(Cl)cc1[C@@H](O)CNC(CO)CO [I-145] | > 1 | 70 to 90 |  | > 1 | 70 to 90
6 | Cc1nc(N)c(Cl)cc1[C@@H](O)CNC1COC1 [I-146] | > 1 | < 50 |  | > 1 | > 90
7 | CC(C)(C)NC[C@H](O)c1cccc2[nH]c(=O)sc12 [I-147] | < 0.01 | 70 to 90 |  | < 0.01 | > 90
8 | CC1(N[C@H](CO)c2cncc3[nH]ncc23)CC1 [I-148] | > 1 | 70 to 90 |  | > 1 | 70 to 90
9 | CC1(N[C@@H](CO)c2cncc3[nH]ncc23)CC1 [I-149] | > 1 | < 50 |  | > 1 | 70 to 90
10 | Cc1nc(N)ccc1[C@@H](O)CNC(C)(C)C [I-150] | 0.01 to 0.1 | > 90 | > 90 | < 0.01 | 
11 | CC(C)(CO)NC[C@H](O)c1cc(C#N)cc2[nH]ncc12 [I-151] | 0.1 to 1 | 70 to 90 | > 90 | 0.1 to 1 | 
12 | N#Cc1cc([C@@H](O)CNC2CCC2)c2cn[nH]c2c1 [I-152] | 0.01 to 0.1 | 70 to 90 |  | 0.01 to 0.1 | > 90
13 | N#Cc1cc([C@@H](O)CNC2CC2)c2cn[nH]c2c1 [I-153] | 0.1 to 1 | 70 to 90 |  | 0.1 to 1 | > 90
14 | Cc1nc(N)ccc1[C@@H](O)CNC1(C)CCC1 [I-154] | 0.1 to 1 | > 90 | > 90 | < 0.01 | 
15 | CC1(NC[C@H](O)c2cc(C#N)cc3[nH]ncc23)CC1 [I-155] | 0.1 to 1 | 70 to 90 | > 90 | 0.01 to 0.1 | 
16 | CC1(NC[C@H](O)c2cncc3[nH]ncc23)CCC1 [I-156] | 0.1 to 1 | 70 to 90 |  | 0.01 to 0.1 | > 90
17 | CC1(NC[C@H](O)c2cc(C#N)cc3[nH]ncc23)CCC1 [I-157] | 0.1 to 1 | 70 to 90 | > 90 | 0.01 to 0.1 | 
18 | O[C@@H](CNC1CCC1)c1cncc2[nH]ncc12 [I-158] | 0.1 to 1 | > 90 |  | 0.1 to 1 | > 90
19 | CC(C)NC[C@H](O)c1cncc2[nH]ncc12 [I-159] | 0.1 to 1 | 70 to 90 |  | 0.1 to 1 | > 90
20 | CC(C)CNC[C@H](O)c1cc(C#N)cc2[nH]ncc12 [I-160] | 0.1 to 1 | 70 to 90 | 70 to 90 | 0.1 to 1 | 
21 | CC(C)NC[C@H](O)c1cc(C#N)cc2[nH]ncc12 [I-161] | 0.01 to 0.1 | > 90 |  | 0.01 to 0.1 | > 90
22 | CC(C)(CO)NC[C@H](O)c1cncc2[nH]ncc12 [I-162] | > 1 | > 90 |  | 0.1 to 1 | > 90
23 | CC(C)CNC[C@H](O)c1cncc2[nH]ncc12 [I-163] | > 1 | 70 to 90 |  | > 1 | 50 to 70
24 | O[C@@H](CNC1CC1)c1cncc2[nH]ncc12 [I-164] | 0.1 to 1 | 70 to 90 |  | 0.1 to 1 | > 90
25 | CCC(C)(C)NC[C@H](O)c1cccnc1C [I-165] | 0.1 to 1 | 70 to 90 | 70 to 90 | 0.1 to 1 | 

— patent US20240270701A1, “BETA ADRENERGIC AGONIST AND METHODS OF USING THE SAME” (Curasen Therapeutics, Inc., priority 2021, published 2024)
